The values below are quoted from earlier work in patent US6987129B2, “Compounds and methods for the treatment of urogenital disorders” (Cellegy Pharmaceuticals, Inc., priority 2001, dated 2006).

Data set [1] deals with women with FSAD. The note with it: human, in vivo.
For data set [2] the following is noted: in vivo.

Consider `CCCc1nn(C)c2c(=O)[nH]c(-c3cc(S(=O)(=O)N4CCN(C)CC4)ccc3OCC)nc12` [Sildenafil], for which, in data set [1], the “efficacy in a larger clinical trial including other patients suffering from FSAD” value was “failed to show efficacy”; the “efficacy in women with spinal cord injury and in women using antidepressants such as serotonin reuptake inhibitors” value is “demonstrated efficacy”.
With `Cn1c(=O)c2c(ncn2CC(O)CO)n(C)c1=O` (stereo not shown) [dyphylline], in data set [2], the excretion entry is listed as “excreted unchanged by the kidneys” and the “metabolism by the liver” value is recorded as “not metabolized by the liver”.
